Laboratory results from DBAASP.
Converted amounts (≈) assume the structure as drawn. “And” between values parts separate entries of the source, which are not always exact repeats. Equal values may be shown once. One block for each compound: values may come before it.

Key:
Experiment in all cases: ≥ marks a high value that may be exact or a test limit, other limits are often not marked, values filed in µg/mL are converted to µM
[1] = test system: Micrococcus luteus CCM 144
Bacillus subtilis 168 = test system: Bacillus subtilis 168
[2] = test system: Candida albicans F7-39/IDE99
Escherichia coli B = test system: Escherichia coli B
Pseudomonas aeruginosa = test system: Pseudomonas aeruginosa
Staphylococcus aureus = test system: Staphylococcus aureus
[3] = test system: Staphylococcus aureus 06-051
Escherichia coli 09-280 = test system: Escherichia coli 09-280
[4] = test system: Acinetobacter baumannii 5821
[5] = test system: Pseudomonas aeruginosa 5106
[6] = test system: Staphylococcus aureus ATCC 29213
[7] = test system: Enterobacter cloacae 14-262
[8] = test system: Pseudomonas aeruginosa ATCC 27853
[9] = test system: Pseudomonas aeruginosa ATCC 9027
[10] = test system: Escherichia coli ATCC 25922
Escherichia coli 09-240 = test system: Escherichia coli 09-240
[11] = test system: Staphylococcus aureus 01-001
[12] = test system: Klebsiella pneumoniae 01-252
Escherichia coli 5509 = test system: Escherichia coli 5509
[13] = test system: Klebsiella pneumoniae 01-239
Escherichia coli 170 = test system: Escherichia coli 170
[14] = test system: Pseudomonas aeruginosa 3599
[15] = test system: Enterobacter cloacae 06-267
[16] = test system: Enterococcus faecalis CGMCC 1.595
[17] = test system: Klebsiella pneumoniae subsp. pneumoniae CGMCC 1.176
Escherichia coli AS1.349 = test system: Escherichia coli AS1.349
[18] = test system: Enterobacter cloacae CGMCC 1.58
Klebsiella pneumoniae = test system: Klebsiella pneumoniae
Klebsiella aerogenes = test system: Klebsiella aerogenes
Lactococcus lactis = test system: Lactococcus lactis
[19] = test system: Staphylococcus aureus AS1.72
Escherichia coli = test system: Escherichia coli
[20] = test system: Enterococcus faecium CGMCC 1.2334
Enterobacter cloacae = test system: Enterobacter cloacae
Pseudomonas fluorescens = test system: Pseudomonas fluorescens
[21] = test system: Pseudomonas aeruginosa CGMCC 1.860
[22] = test system: Acinetobacter baumannii CICC 22934
Acinetobacter baumannii = test system: Acinetobacter baumannii
Bacillus cereus = test system: Bacillus cereus
[23] = test system: Proteus mirabilis CICC 22931
[24] = test system: Staphylococcus epidermidis
[25] = test system: Staphylococcus epidermidis CICC 23664
Enterococcus faecium = test system: Enterococcus faecium
Bacillus cereus AS1.126 = test system: Bacillus cereus AS1.126
[26] = test system: Klebsiella aerogenes CGMCC 1.876
[27] = test system: Escherichia coli ATCC 11775
[28] = test system: Staphylococcus aureus ATCC 12600
[29] = test system: Lactococcus lactis AS1.1690
[30] = test system: Streptococcus agalactiae PTCC 1365
[31] = test system: Streptococcus dysgalactiae PTCC 1074
[32] = test system: Salmonella typhimurium PTCC 1428
[33] = test system: Klebsiella pneumoniae PTCC 1388
[34] = test system: Escherichia coli HP101BA 7601c
[35] = test system: Staphylococcus aureus PTCC 1431

- MIC [1]: 1.6 µM (≈ 4.4 µg/mL)
- MIC (Bacillus subtilis 168): 3.3 µM (≈ 9.08 µg/mL)
- MIC [2]: 24.2 µM (≈ 66.6 µg/mL)
- MIC (Escherichia coli B): ≥ 63.3 µM
- MIC (Pseudomonas aeruginosa): > 100 µM
- MIC (Staphylococcus aureus): > 100 µM
Compound: CC[C@H](C)[C@@H]1NC(=O)[C@H](CCCCN)NC(=O)[C@H](CCCCN)NC(=O)[C@@H]2CSSC[C@H](NC(=O)[C@H](C)NC(=O)[C@H](C(C)C)NC(=O)[C@@H](NC(=O)[C@@H](NC(=O)[C@@H](NC(=O)[C@H](CCCCN)NC(=O)[C@H](CCCCN)NC(=O)[C@@H](NC(=O)[C@H](CC(=O)O)NC(=O)[C@@H](N)CC(C)C)C(C)C)[C@@H](C)CC)[C@@H](C)CC)CSSC[C@@H](C(=O)N3CCC[C@H]3C(=O)N[C@@H](CCCCN)C(=O)O)NC1=O)C(=O)N[C@@H](CCCCN)C(=O)N[C@@H]([C@@H](C)CC)C(=O)N[C@@H](CCCCN)C(=O)N1CCC[C@H]1C(=O)N[C@@H](CC(N)=O)C(=O)N1CCC[C@H]1C(=O)N[C@@H](C)C(=O)N2 [LDVKKIICVACKIKPNPACKKICPK]

- MIC [3]: ≥ 32 µM
- MIC (Escherichia coli 09-280): ≥ 32 µM
- MIC [4]: ≥ 38 µM
- MIC [5]: ≥ 32 µM
- MIC [6]: 32 µM (≈ 49.5 µg/mL)
- MIC [7]: ≥ 50 µM
- MIC [8]: > 32 µM
- MIC [9]: 40 µM (≈ 61.9 µg/mL)
- MIC [10]: 25 µM (≈ 38.7 µg/mL)
- MIC (Escherichia coli 09-240): ≥ 50 µM
- MIC [11]: ≥ 32 µM
- MIC [12]: ≥ 32 µM
- MIC (Escherichia coli 5509): ≥ 32 µM
- MIC [13]: ≥ 50 µM
- MIC (Escherichia coli 170): ≥ 32 µM
- MIC [14]: ≥ 32 µM
- MIC [15]: ≥ 32 µM
Compound: CC[C@H](C)[C@H](NC(=O)[C@H](C)NC(=O)[C@H](CC(N)=O)NC(=O)[C@H](CCCCN)NC(=O)[C@@H](NC(=O)CNC(=O)[C@H](CCC(=O)O)NC(=O)[C@H](Cc1c[nH]c2ccccc12)NC(=O)[C@H](CC(C)C)NC(=O)[C@H](CCCCN)NC(=O)CNC(=O)[C@H](Cc1c[nH]c2ccccc12)NC(=O)[C@@H](N)Cc1ccccc1)C(C)C)C(N)=O [FWGKLWEGVKNAI]

- MIC [16]: ≥ 33.3 µM
- MIC [17]: ≥ 500 µM
- MIC (Escherichia coli AS1.349): ≥ 500 µM
- MIC [18]: ≥ 500 µM
- MIC (Klebsiella pneumoniae): > 50 µM
- MIC (Klebsiella aerogenes): ≥ 50 µM
- MIC (Lactococcus lactis): 11.6 µM (≈ 25 µg/mL)
- MIC [19]: ≥ 58 µM
- MIC (Escherichia coli): > 100 µM and 50 µM
- MIC [20]: ≥ 42.4 µM
- MIC (Enterobacter cloacae): ≥ 50 µM
- MIC (Pseudomonas fluorescens): ≥ 50 µM
- MIC [21]: ≥ 380 µM
- MIC [22]: ≥ 100 µM
- MIC (Acinetobacter baumannii): ≥ 50 µM
- MIC (Bacillus cereus): 11.6 µM (≈ 25 µg/mL)
- MIC [23]: ≥ 100 µM
- MIC [24]: ≥ 50 µM
- MIC (Pseudomonas aeruginosa): > 50 µM
- MIC [25]: 7.2 µM (≈ 15.5 µg/mL)
- MIC (Enterococcus faecium): ≥ 50 µM
- MIC (Bacillus cereus AS1.126): 11.6 µM (≈ 25 µg/mL)
- MIC [26]: ≥ 500 µM
- MIC [27]: 3 µM (≈ 6.47 µg/mL)
- MIC (Staphylococcus aureus): 58 µM and 50 µM
- MIC [28]: 6 µM (≈ 12.9 µg/mL)
- MIC [29]: 15.6 µM (≈ 33.6 µg/mL)
Compound: CC(C)C[C@H](NC(=O)CNC(=O)[C@H](Cc1ccccc1)NC(=O)[C@H](CCCN=C(N)N)NC(=O)[C@H](CCCN=C(N)N)NC(=O)CNC(=O)[C@H](Cc1cnc[nH]1)NC(=O)[C@H](CCCN=C(N)N)NC(=O)CNC(=O)[C@@H](NC(=O)[C@H](C)NC(=O)[C@@H](N)CO)C(C)C)C(=O)N[C@@H](CCCN=C(N)N)C(=O)N[C@@H](CCCCN)C(=O)N[C@@H](Cc1cnc[nH]1)C(=O)N[C@@H](CCCN=C(N)N)C(=O)N[C@@H](CCCCN)C(=O)N[C@@H](Cc1cnc[nH]1)C(=O)O [SAVGRHGRRFGLRKHRKH]

- MIC [30]: 24.5 µM (≈ 30.5 µg/mL)
- MIC [31]: 17.5 µM (≈ 21.8 µg/mL)
- MIC [32]: 25.6 µM (≈ 31.8 µg/mL)
- MIC [33]: 28.2 µM (≈ 35.1 µg/mL)
- MIC [34]: 27.8 µM (≈ 34.5 µg/mL)
- MIC [35]: ≥ 33.9 µM
Compound: CC(C)C[C@H](NC(=O)[C@@H](NC(=O)CNC(=O)[C@H](C)NC(=O)[C@H](CC(C)C)NC(=O)[C@@H](NC(=O)[C@@H]1CCCN1C(=O)[C@H](CC(C)C)NC(=O)[C@@H](N)Cc1ccccc1)C(C)C)C(C)C)C(=O)N[C@@H](CO)C(=O)N[C@@H](CCCN=C(N)N)C(=O)N[C@@H](C)C(N)=O [FLPVLAGVLSRA]
